Assay results reported in ChEMBL document CHEMBL6120965, “Structure-Activity Relationship Studies Leading to the Discovery of Highly Water-Soluble and Biocompatible Acyclic Cucurbit[n]uril FY-3451 as a Universal Antagonist That Rapidly Reverses Neuromuscular Blocking Agents In Vivo” (J Med Chem, 2024).

Experiments:
[1] = Toxicity in Sprague-Dawley rat assessed as body weight loss measured at 2000 mg/kg, iv upto 14 days; format: organism-based; settings: in vivo, 336 h, time < 14 day
[2] = test system: Proflavine; test: Binding affinity to Proflavine by Competition UV-Vis titration method
[3] = Hemolytic activity in human erythrocytes assessed as hemolysis at 0.51 to 32.8 mg/ml; format: toxicity, cell-based, Erythrocyte; settings: dose 0.51-32.8 mg/ml, read-out: Activity
[4] = test system: Rattus norvegicus; test: Recovery of Roc-induced neuromuscular block in Sprague-Dawley rat assessed as […] ratio (TOFr) >= 90% by measuring recovery time at 25 mg/kg, iv (reference value: 597 seconds); format: functional
[5] = test system: Rattus norvegicus; test: Recovery of Roc-induced neuromuscular block in Sprague-Dawley rat assessed as […] ratio (TOFr) by measuring recovery time at 12.5 mg/kg, iv (reference value: […]); format: functional
[6] = test system: Midazolium-based-macrocycle; test: Binding affinity to Midazolium-based-macrocycle by Competition UV-Vis titration method
[7] = test system: Rattus norvegicus; test: Recovery of Pan-induced neuromuscular block in Sprague-Dawley rat assessed as […] ratio (TOFr) >= 90% by measuring recovery time at 25 mg/kg, iv (reference value: 3600 seconds); format: functional
[8] = Toxicity in human plasma assessed as abnormality in aPTT by measuring clotting time at < 4.8 mg/kg; format: organism-based; settings: in vivo
[9] = test system: Rhodamine 6G; test: Binding affinity to Rhodamine 6G by Competition UV-Vis titration method
[10] = test system: Trans-cydohexane-1,4-diartunonium dichloride; test: Binding affinity to Trans-[…] dichloride by Competition UV-Vis titration method
[11] = Toxicity in Sprague-Dawley rat assessed as histological changes in heart measured at 2000 mg/kg, iv upto 14 days by H and E assay; format: organism-based; settings: in vivo, 336 h, time < 14 day
[12] = test system: Rattus norvegicus; test: Recovery of CisA-induced neuromuscular block in Sprague-Dawley rat assessed as […] ratio (TOFr) by measuring recovery time at 25 mg/kg, iv (reference value: 784 seconds); format: functional
[13] = Therapeutic index, ratio of toxicity in iv dosed Sprague-Dawley rat assessed as maximum tolerated dose to recovery of CisA-induced neuromuscular block in Sprague-Dawley rat assessed as […] ratio (TOFr) by measuring recovery time at 80 to 100 mg/kg, iv; format: organism-based; settings: in vivo, dose 80-100 mg/kg, read-out: TI
[14] = Cytotoxicity against rat H9c2 cells assessed as cell viability measured after 25 hrs by CCK-8 assay; format: toxicity, cell-based
[15] = Toxicity in Sprague-Dawley rat assessed as histological changes in lungs measured at 2000 mg/kg, iv upto 14 days by H and E assay; format: organism-based; settings: in vivo, 336 h, time < 14 day
[16] = Hemolytic activity in Sprague-Dawley rat erythrocytes assessed as hemolysis at 0.51 to 32.8 mg/ml; format: toxicity, cell-based, Erythrocyte; settings: dose 0.51-32.8 mg/ml, read-out: Activity
[17] = test system: Rattus norvegicus; test: Recovery of Vec-induced neuromuscular block in Sprague-Dawley rat assessed as […] ratio (TOFr) >= 90% by measuring recovery time at 25 mg/kg, iv (reference value: 525 seconds); format: functional
[18] = test system: Pancuronium; test: Binding affinity to Pancuronium by Competition UV-Vis titration method
[19] = test system: Rattus norvegicus; test: Recovery of IMC-1-induced neuromuscular block in Sprague-Dawley rat assessed as […] ratio (TOFr) >= 90% by measuring recovery time at 10 mg/kg, iv (reference value: 4021 seconds); format: functional
[20] = Toxicity in Sprague-Dawley rat assessed as histological changes in kidney measured at 2000 mg/kg, iv upto 14 days by H and E assay; format: organism-based; settings: in vivo, 336 h, time < 14 day
[21] = Toxicity in iv dosed Sprague-Dawley rat assessed as maximum tolerated dose measured upto 14 days; format: organism-based; settings: in vivo, 336 h, time < 14 day
[22] = test system: Rocuronium; test: Binding affinity to Rocuronium by Competition UV-Vis titration method
[23] = Therapeutic index, ratio of toxicity in iv dosed Sprague-Dawley rat assessed as maximum tolerated dose to recovery of Roc/Vec/Panc-induced neuromuscular block in Sprague-Dawley rat assessed as […] ratio (TOFr) by measuring recovery time at 25 mg/kg, iv; format: organism-based; settings: in vivo, read-out: TI
[24] = Toxicity in human whole blood assessed as clotting indices measured at 1 mg/ml; format: tissue-based
[25] = test system: Vecuronium; test: Binding affinity to Vecuronium by Competition UV-Vis titration method
[26] = test system: Cisatracurium; test: Binding affinity to Cisatracurium by Competition UV-Vis titration method
[27] = Toxicity in Sprague-Dawley rat assessed as histological changes in spleen measured at 2000 mg/kg, iv upto 14 days by H and E assay; format: organism-based; settings: in vivo, 336 h, time < 14 day
[28] = Water solubility of the compound measured at 25 degreeC; format: physicochemical
[29] = test system: Rattus norvegicus; test: Recovery of CisA-induced neuromuscular block in Sprague-Dawley rat assessed as […] ratio (TOFr) >= 90% by measuring recovery time at 150 mg/kg, iv (reference value: 784 seconds); format: functional
[30] = Cytotoxicity against rat H9c2 cells assessed as cell viability at 0.5 mg/ml measured after 25 hrs by CCK-8 assay; format: toxicity, cell-based; settings: read-out: Activity
[31] = Toxicity in Sprague-Dawley rat assessed as histological changes in liver measured at 2000 mg/kg, iv upto 14 days by H and E assay; format: organism-based; settings: in vivo, 336 h, time < 14 day
[32] = test system: Rattus norvegicus; test: Recovery of CisA-induced neuromuscular block in Sprague-Dawley rat assessed as […] ratio (TOFr) >= 90% by measuring recovery time at 100 mg/kg, iv (reference value: 784 seconds); format: functional

With C[C@]12N3Cc4c(c(OCCCS(=O)(=O)[O-])c5c(c4OCCCS(=O)(=O)[O-])CCC5)CN1C(=O)N1CN4C(=O)N5CN6C(=O)N7CN8C(=O)N9Cc%10c(c(OCCCS(=O)(=O)[O-])c%11c(c%10OCCCS(=O)(=O)[O-])CCC%11)CN%10C(=O)N(CN%11C(=O)N(CN%12C(=O)N(CN(C3=O)[C@]12C)[C@@H]4[C@H]%125)[C@@H]6[C@H]%117)[C@]8(C)[C@@]9%10C.[Na+].[Na+].[Na+].[Na+] the Activity [1] was “Non-toxic”, the Ka [2] was 29.6 10^7/M and the hemolysis [3] was under 5%. The Time [4] was 24 s, the Time [5] was 15 s and the Ka [6] was 339 10^7/M. The Time [7] was 20 s, the Activity [8] was “Non-toxic” and the Ka [9] was 0.1 10^7/M. The Ka [10] was 0.043 10^7/M, the Activity [11] was “Non-toxic” and the Time [12] was 27 s. For the same molecule, the selectivity ratio [13] was 18.8, the IC50 at 25 h [14] was over 1000 mg/L and the Activity [15] was “Non-toxic”. The hemolysis [16] was under 5%, the Time [17] was 15 s and the Ka [18] was 1.22 10^7/M. The Time [19] was 12 s, the Activity [20] was “Non-toxic” and the MTD [21] was 500 mg/kg. For the same molecule, the Ka [22] was 20.1 10^7/M, the selectivity ratio [23] was 60 and the Activity [24] was “Non-toxic”. For the same molecule, the Ka [25] was 21 10^7/M, the Ka [26] was 0.088 10^7/M and the Activity [27] was “Non-toxic”. For the same molecule, the solubility [28] was 1000 mg/mL, the Time [29] was 24 s and the viability at 25 h, 0.5 mg/ml [30] was 80%. The Activity [31] was “Non-toxic” and the Time [32] was 34 s.
